Where two headings read alike, the source gives them in different places.
Biological target: T1, BRD9 (Homo sapiens, UniProt Q9H8M2)
T1 sequence (Q9H8M2 1-597): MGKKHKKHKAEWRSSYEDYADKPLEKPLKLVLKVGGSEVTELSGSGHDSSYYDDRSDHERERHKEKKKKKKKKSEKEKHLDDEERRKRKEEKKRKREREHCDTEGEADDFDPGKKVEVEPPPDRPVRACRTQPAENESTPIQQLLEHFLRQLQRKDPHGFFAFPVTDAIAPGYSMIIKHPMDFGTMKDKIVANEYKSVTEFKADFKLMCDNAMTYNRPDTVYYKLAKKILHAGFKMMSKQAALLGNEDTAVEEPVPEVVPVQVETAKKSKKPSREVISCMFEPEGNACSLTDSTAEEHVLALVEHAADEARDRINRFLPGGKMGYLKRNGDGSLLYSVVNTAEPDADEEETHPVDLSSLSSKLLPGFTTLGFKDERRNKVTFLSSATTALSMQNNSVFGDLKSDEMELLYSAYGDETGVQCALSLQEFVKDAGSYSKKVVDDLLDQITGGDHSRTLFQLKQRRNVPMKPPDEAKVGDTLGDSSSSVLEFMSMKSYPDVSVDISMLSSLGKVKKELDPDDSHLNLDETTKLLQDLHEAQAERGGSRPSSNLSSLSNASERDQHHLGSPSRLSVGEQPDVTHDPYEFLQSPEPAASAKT
Experiment: Degradation of BRD9 (IF), immunofluorescence in MV4-11 cells, 24 hours (Assay Protocol 2)
Format: cell-based
Set-up: A suspension of MV4-11 cells (ATCC CRL-9591) was prepared; host or cells: MV4-11
Conditions: BRD9 degradation
Procedure, shortened: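 % BRD9 remaining, scaled between DMSO (high) and 100 nM CFT-8634 (low) control wells, derives from mean Alexa 647 contrast in central nuclei by high-content imaging. MV4-11 cells had 24 h compound exposure at 37° C. before PFA fixation, Triton permeabilisation and anti-BRD9 E4Q3F immunostaining.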

[1] = Assay protocol 2, read-out: DC50
[2] = MV4-11, Assay protocol 2, read-out: Dmax

| DC50 [1] [nM] | Dmax [2] [%] | SMILES | Dmax (MV4-11, Table 4, determined according to Assay Protocol 2, read-out: Dmax^2) [%] | DC50 (Table 4, determined according to Assay Protocol 2, read-out: DC50^2) [nM] |
| --- | --- | --- | --- | --- |
| 25 to 1000 | 40 to 70 | COc1cc(-c2cn(C)c(=O)c(C)c2C)cc(OC)c1CN1CCC(N(C)c2cccc3c2CCN(C(=O)/C(C#N)=C/C(C)(C)C)C3C)C(F)(F)C1 (mixture of isomers) [Compound C57] |  |  |
| < 1.25 | 40 to 70 | COc1cc(-c2cn(C)c(=O)c(C)c2C)cc(OC)c1C(=O)N1CCN(Cc2cccc3c2CCN(C(=O)/C(C#N)=C/c2cccc(Br)n2)C3C)CC1 (mixture of isomers) [Compound B80, (E/Z)-3-(6-bromopyridin-2-yl)-2-(5-((4-(2,6-dimethoxy-4-(1,4,5-trimethyl-6-oxo-1,6-dihydropyridin-3-yl)benzoyl)piperazin-1-yl)methyl)-1-methyl-1,2,3,4-tetrahydroisoquinoline-2-carbonyl)acrylonitrile] |  |  |
| 1.25 to 10 | > 75 | COc1cc(-c2cn(C)c(=O)c(C)c2C)cc(OC)c1CN1CCN(C(=O)COCCOc2ccc3c(c2)C(C)N(C(=O)/C(C#N)=C/c2nccs2)CC3)CC1 (mixture of isomers) [Compound B83, (E/Z)-2-(7-(2-(2-(4-(2,6-dimethoxy-4-(1,4,5-trimethyl-6-oxo-1,6-dihydropyridin-3-yl)benzyl)piperazin-1-yl)-2-oxoethoxy)ethoxy)-1-methyl-1,2,3,4-tetrahydroisoquinoline-2-carbonyl)-3-(thiazol-2-yl)acrylonitrile] |  |  |
| 1.25 to 10 | 70 to 75 | COc1cc(-c2cn(C)c(=O)c(C)c2C)cc(OC)c1CN1CCC(Cc2cccc3c2CCN(C(=O)/C(C#N)=C/C(C)(C)CF)[C@H]3C)CC1 (single isomer, unassigned) [Compound C60, (E/Z)-2-(5-((1-(2,6dimethoxy-4-(1,4,5-trimethyl-6-oxo-1,6-dihydropyridin-3-yl)benzyl)piperidin-yl)methyl)-1-methyl-1,2,3,4-tetrahydroisoquinoline-2-carbonyl)-5-fluoro-4,4-dimethylpent-2-enenitrile] |  |  |
|  | 40 to 70 | CC[C@H]1c2cccc(CN3CCN(Cc4c(OC)cc(-c5cn(C)c(=O)c(C)c5C)cc4OC)CC34CC4)c2CCN1C(=O)/C(C#N)=C/C(C)(C)CF (single isomer, unassigned) [Compound C92, (E/Z)-2-(5-((7-(2,6-dimethoxy-4-(1,4,5-trimethyl-6-oxo-1,6-dihydropyridin-3-yl)benzyl)-4,7-diazaspiro[2.5]octan-4-yl)methyl)-1-ethyl-1,2,3,4-tetrahydroisoquinoline-2-carbonyl)-5-fluoro-4,4-dimethylpent-2-enenitrile] |  |  |
| 10 to 25 | 40 to 70 | COc1cc(-c2cn(C)c(=O)c(C)c2C)cc(OC)c1CN1CCC2(CC1)CN(c1cccc3c1CCN(C(=O)/C(C#N)=C/C(C)(C)C)[C@@H]3C)C2 (mixture of isomers) [Compound C45, (E/Z)-2-(5-(7-(2,6-dimethoxy-4-(1,4,5-trimethyl-6-oxo-1,6-dihydropyridin-3-yl)benzyl)-2,7-diazaspiro[3.5]nonan-2-yl)-1-methyl-1,2,3,4-tetrahydroisoquinoline-2-carbonyl)-4,4-dimethylpent-2-enenitrile] |  |  |
| < 1.25 | > 75 | COc1cc(-c2cn(C)c(=O)c(C)c2C)cc(OC)c1CN1CCN(Cc2cccc3c2CCN(C(=O)/C(C#N)=C/C(C)(C)F)[C@@H]3C)C2(CC2)C1 (single isomer, unassigned) [Compound C20, (E/Z)-2-(5-((7-(2,6-dimethoxy-4-(1,4,5-trimethyl-6-oxo-1,6-dihydropyridin-3-yl)benzyl)-4,7-diazaspiro[2.5]octan-4-yl)methyl)-1-methyl-1,2,3,4-tetrahydroisoquinoline-2-carbonyl)-4-fluoro-4-methylpent-2-enenitrile] |  |  |
| 1.25 to 10 | > 75 | COCC1(OC)c2cccc(CN3CCN(Cc4c(OC)cc(-c5cn(C)c(=O)c(C)c5C)cc4OC)CC34CC4)c2CCN1C(=O)/C(C#N)=C/C(C)(C)C (mixture of isomers) [Compound C18, (E/Z)-2-(5-((7-(2,6-dimethoxy-4-(1,4,5-trimethyl-6-oxo-1,6-dihydropyridin-3-yl)benzyl)-4,7-diazaspiro[2.5]octan-4-yl)methyl)-1-methoxy-1-(methoxymethyl)-1,2,3,4-tetrahydroisoquinoline-2-carbonyl)-4,4-dimethylpent-2-enenitrile] |  |  |
| < 1.25 | > 75 | COc1cc(-c2cn(C)c(=O)c(C)c2C)cc(OC)c1CN1CCN(Cc2cccc3c2CCN(C(=O)/C(C#N)=C/C(C)(C)C)C3C2CC2)C2(CC2)C1 (mixture of isomers) [Compound C16, (E/Z)-2-(1-cyclopropyl-5-((7-(2,6-dimethoxy-4-(1,4,5-trimethyl-6-oxo-1,6-dihydropyridin-3-yl)benzyl)-4,7-diazaspiro[2.5]octan-4-yl)methyl)-1,2,3,4-tetrahydroisoquinoline-2-carbonyl)-4,4-dimethylpent-2-enenitrile] |  |  |
|  |  | COc1cc(-c2cn(C)c(=O)c(C)c2C)cc(OC)c1CN1C2CC1CN(C(=O)/C(C#N)=C/c1cc(C)on1)C2 (mixture of isomers) [BRD9y, (E/Z)-2-(6-(2,6-dimethoxy-4-(1,4,5-trimethyl-6-oxo-1,6-dihydropyridin-3-yl)benzyl)-3,6-diazabicyclo[3.1.1]heptane-3-carbonyl)-3-(5-methylisoxazol-3-yl)acrylonitrile] | 30 to 50 | < 25 |
| < 1.25 | > 75 | COc1cc(-c2cn(C)c(=O)c(C)c2C)cc(OC)c1CN1CCN(Cc2cccc3c2CCN(C(=O)/C(C#N)=C\C24CC(C)(C2)C4)C3C)C2(CC2)C1 (mixture of isomers) [Compound B161, (E/Z)-2-(5-((7-(2,6-dimethoxy-4-(1,4,5-trimethyl-6-oxo-1,6-dihydropyridin-3-yl)benzyl)-4,7-diazaspiro[2.5]octan-4-yl)methyl)-1-methyl-1,2,3,4-tetrahydroisoquinoline-2-carbonyl)-3-(3-methylbicyclo[1.1.1]pentan-1-yl)acrylonitrile] |  |  |
| < 1.25 | 70 to 75 | COc1cc(-c2cn(C)c(=O)c3[nH]ncc23)cc(OC)c1CN1CCN(Cc2cccc3c2CCN(C(=O)/C(C#N)=C/c2cccc(Br)n2)C3C)C2(CC2)C1 (mixture of isomers) [Compound B118, (E/Z)-3-(6-bromopyridin-2-yl)-2-(5-((7-(2,6-dimethoxy-4-(6-methyl-7-oxo-6,7-dihydro-1H-pyrazolo[3,4-c]pyridin-4-yl)benzyl)-4,7-diazaspiro[2.5]octan-4-yl)methyl)-1-methyl-1,2,3,4-tetrahydroisoquinoline-2-carbonyl)acrylonitrile] |  |  |
| 1.25 to 10 | > 75 | COc1cc(-c2cn(C)c(=O)c(C)c2C)cc(OC)c1CN1CCCN(Cc2cccc3c2CCN(C(=O)/C(C#N)=C/C(C)(C)CF)[C@@H]3C)CC1 (single isomer, unassigned) [Compound C19] |  |  |
| 25 to 1000 | 40 to 70 | COc1cc(-c2cn(C)c(=O)c(C)c2C)cc(OC)c1CN1CCN(Cc2cccc3c2CCN(C(=O)/C(C#N)=C/C2CCCCC2)C3C)CC1 (mixture of isomers) [Compound B73, (E/Z)-3-cyclohexyl-2-(5-((4-(2,6-dimethoxy-4-(1,4,5-trimethyl-6-oxo-1,6-dihydropyridin-3-yl)benzyl)piperazin-1-yl)methyl)-1-methyl-1,2,3,4-tetrahydroisoquinoline-2-carbonyl)acrylonitrile] |  |  |
| 1.25 to 10 | 40 to 70 | COc1cc(-c2cn(C)c(=O)c(C)c2C)cc(OC)c1CN1CCN(Cc2cccc3c2CCN(C(=O)/C(C#N)=C/C2CCOCC2)C3C)CC1 (mixture of isomers) [Compound B69, (E/Z)-2-(5-((4-(2,6-dimethoxy-4-(1,4,5-trimethyl-6-oxo-1,6-dihydropyridin-3-yl)benzyl)piperazin-1-yl)methyl)-1-methyl-1,2,3,4-tetrahydroisoquinoline-2-carbonyl)-3-(tetrahydro-2H-pyran-4-yl)acrylonitrile] |  |  |

| SMILES | DC50 [1] [nM] | Dmax [2] [%] | Dmax (MV4-11, Table 4, determined according to Assay Protocol 2, read-out: Dmax^2) [%] | DC50 (Table 4, determined according to Assay Protocol 2, read-out: DC50^2) [nM] |
| --- | --- | --- | --- | --- |
| COc1cc(-c2cn(C)c(=O)c(C)c2C)cc(OC)c1CN1CC2CC(C1)N2Cc1ccc2c(c1)[C@H](C)N(C(=O)/C(C#N)=C/C(C)(C)C)CC2 (single isomer, unassigned) [Compound C63, (E/Z)-2-(7-((3-(2,6-dimethoxy-4-(1,4,5-trimethyl-6-oxo-1,6-dihydropyridin-3-yl)benzyl)-3,6-diazabicyclo[3.1.1]heptan-6-yl)methyl)-1-methyl-1,2,3,4-tetrahydroisoquinoline-2-carbonyl)-4,4-dimethylpent-2-enenitrile] | 1.25 to 10 | > 75 |  |  |
